Laboratory results taken from patent US9617244B2, “Antibacterial quinoline derivatives” (JANSSEN PHARMACEUTICA NV, priority 2012, dated 2017).
Converted amounts (≈) assume the structure as drawn.

How the values were obtained:
[1] = tested on: Mycobacterium smegmatis (ATCC607); assay: In-vitro anti-bacterial activity against strain M. Smegmatis ATCC607; format: cell-based; conditions: 90% inhibitory concentration for bacterial growth, Alamar Blue fluorescence; for IC90: Mycolicibacterium smegmatis, ATCC607, 48 h, read-out: IC90 MSM 607; for IC90 MSM 607: 48 hours
How it was run: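 IC90 (μg/ml) derived from Alamar Blue fluorescence (530/590 nm) after 48 h growth at 37 °C under 5% CO2. About 250 CFU per well in Mueller-Hinton broth faced five-fold serial compound dilutions in BSA-containing wells.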

[2] = tested on: Staphylococcus aureus (ATCC29213); assay: In-vitro anti-bacterial activity, microtitre plate assay, IC90 determination (non-mycobacterial strains); format: cell-based; conditions: 90% inhibitory concentration for bacterial growth, resazurin fluorescence; for IC90: Staphylococcus aureus, ATCC29213, 24 h, read-out: IC90 STA B29213; for IC90 STA B29213: 24 hours
How it was run: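 Growth inhibition measured fluorometrically with resazurin (530/590 nm) after overnight 37 °C incubation under normal atmosphere. Bacteria added at roughly 100 TCID50 per well in Mueller-Hinton broth to five-fold compound dilution series; IC90 reported in μg/ml.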

SMILES	IC90 [1] [µg/mL]	IC90 [2] [µg/mL]	IC90 MSM 607 [1] [µg/mL]	IC90 STA B29213 [2] [µg/mL]
O=c1[nH]c2ccc(Cl)cc2cc1C(c1ccc(Cl)cc1)C1(O)CCNC(Cc2ccc(F)cc2)C1 (stereo not drawn) [Compound 343]	4.35 (≈ 8.51 µM)	6.9 (≈ 13.5 µM)	–	–
Cc1cc(F)ccc1C1CC(O)(C(c2ccc(Cl)cc2)c2cc3cc(Br)ccc3[nH]c2=O)CCN1 (stereo not drawn) [Compound 110]	–	–	1.87 (≈ 3.36 µM)	1.87 (≈ 3.36 µM)
CSc1ccc2[nH]c(=O)c(C(c3ccc(Cl)cc3)C3(O)CCNC(c4ccc(F)cc4C)C3)cc2c1 (stereo not drawn) [Compound 268]	–	–	1.40 (≈ 2.68 µM)	1.76 (≈ 3.36 µM)
COc1nc2ccc(SC)cc2cc1C(c1cccc(Cl)c1)C1(O)CCNC(c2ccc(F)cc2C)C1 (stereo not drawn) [Compound 166]	–	–	1.95 (≈ 3.63 µM)	3.09 (≈ 5.75 µM)
COc1nc2ccc(Br)cc2cc1C(c1ccc(Cl)cc1)C1(O)CCNC(Cc2ccccn2)C1 (stereo not drawn) [Compound 379]	–	–	2.77 (≈ 5.01 µM)	3.49 (≈ 6.31 µM)
Cc1cc(F)ccc1C1CC(O)(C(c2ccc(S(C)(=O)=O)cc2)c2cc3cc(Cl)ccc3[nH]c2=O)CCN1 (stereo not drawn) [Compound 377]	> 14.9	> 14.9	–	–
Cc1cc(F)ccc1C1CC(O)(C(c2cccc(Cl)c2)c2cc3cc(Br)ccc3[nH]c2=O)CCN1 (stereo not drawn) [Compound 136]	–	–	1.47 (≈ 2.64 µM)	2.08 (≈ 3.74 µM)
COc1nc2ccc(SC)cc2cc1C(c1ccccc1)C1(O)CCNC(Cc2ccccc2)C1 (stereo not drawn) [Compound 141]	–	–	4.37 (≈ 9.02 µM)	7.77 (≈ 16 µM)
O=c1[nH]c2ccc(Br)cc2cc1C(c1ccc(Cl)cc1)C1(O)CCNC(Cc2ccc(F)c(F)c2)C1 (stereo not drawn) [Compound 133]	–	–	3.06 (≈ 5.33 µM)	3.85 (≈ 6.71 µM)
COc1nc2ccc(SC)cc2cc1C(c1ccc(Cl)cc1)C1(O)CCNC(Cc2ccc(F)c(F)c2)C1 (stereo not drawn) [Compound 190]	–	–	1.76 (≈ 3.17 µM)	1.39 (≈ 2.5 µM)
COc1nc2ccc(Br)cc2cc1C(c1cccc(Cl)c1)C1(O)CCNC(c2ccc(F)cc2C)C1 (stereo not drawn) [Compound 150]	–	–	1.66 (≈ 2.91 µM)	2.63 (≈ 4.61 µM)
COc1nc2ccc(Br)cc2cc1C(c1ccc(Cl)cc1)C1(O)CCNC(Cc2ccccn2)C1 (stereo not drawn) [Compound 380]	–	–	4.10 (≈ 7.42 µM)	5.16 (≈ 9.33 µM)
CS(=O)(=O)c1ccc2[nH]c(=O)c(C(c3ccc(Cl)cc3)C3(O)CCNC(Cc4ccc(F)c(F)c4)C3)cc2c1 (stereo not drawn) [Compound 214]	–	–	>17.57	>17.57
COc1nc2ccc(SC)cc2cc1C(c1cccc(Cl)c1)C1(O)CCNC(Cc2ccc(F)cc2F)C1 (stereo not drawn) [Compound 50]	1.15 (≈ 2.07 µM)	1.15 (≈ 2.07 µM)	–	–
COc1nc2ccccc2cc1C(c1ccccc1)C1(O)CCNC(Cc2ccccc2)C1 (stereo not drawn) [Compound 401]	–	–	>12.77	>12.77
COc1nc2ccc(Br)cc2cc1C(c1cccnc1)C1(O)CCNC(Cc2ccccc2)C1 (stereo not drawn) [Compound 427]	> 16.1	> 16.1	–	–
COc1nc2ccc(S(C)(=O)=O)cc2cc1C(c1ccc(Cl)cc1)C1(O)CCNCC1Cc1cccc(F)c1 (stereo not drawn) [Compound 292]	–	–	5.69 (≈ 10 µM)	7.16 (≈ 12.6 µM)
CS(=O)(=O)c1ccc2[nH]c(=O)c(C(c3cccc(Cl)c3)C3(O)CCNC(Cc4ccc(F)cc4F)C3)cc2c1 (stereo not drawn) [Compound 328]	–	–	12.16 (≈ 21.2 µM)	15.31 (≈ 26.7 µM)
COc1nc2ccc(Cl)cc2cc1C(c1ccc(Cl)cc1)C1(O)CCNC(c2ccc3ccccc3c2)C1 (stereo not drawn) [Compound 442]	–	–	3.60 (≈ 6.62 µM)	11.37 (≈ 20.9 µM)
COc1nc2ccc(C(=O)O)cc2cc1C(c1ccc(Cl)cc1)C1(O)CCNC(Cc2ccccc2)C1 (stereo not drawn) [Compound 118]	> 20.6	> 20.6	–	–
Cc1cc(F)ccc1C1CC(O)(C(c2cccc(Cl)c2)c2cc3cc(S(C)(=O)=O)ccc3[nH]c2=O)CCN1 (stereo not drawn) [Compound 271]	–	–	9.34 (≈ 16.8 µM)	7.42 (≈ 13.4 µM)
COc1nc2ccc(SC)cc2cc1C(c1ccc(Cl)cc1)C1(O)CCNCC1Cc1cccc(F)c1 (stereo not drawn) [Compound 286]	–	–	2.12 (≈ 3.95 µM)	4.22 (≈ 7.86 µM)
COc1nc2ccc(Cl)cc2cc1C(c1ccc(SC)cc1)C1(O)CCNC(c2ccc(F)cc2C)C1 (stereo not drawn) [Compound 354]	–	–	3.14 (≈ 5.85 µM)	3.95 (≈ 7.35 µM)
C=CC1CC(O)(C(c2ccc(Cl)cc2)c2cc3cc(Br)ccc3[nH]c2=O)CCN1 (stereo not drawn) [Compound 359]	10.2 (≈ 21.5 µM)	12.8 (≈ 27.1 µM)	–	–
COc1nc2ccc(F)cc2cc1C(c1ccc(S(C)(=O)=O)cc1)C1(O)CCNC(c2ccc(F)cc2C)C1 (stereo not drawn) [Compound 418]	–	–	17.67 (≈ 32 µM)	>17.6721
Cc1cc(F)ccc1C1CC(O)(C(c2ccc(S(C)(=O)=O)cc2)c2cc3cc(Cl)ccc3[nH]c2=O)CCN1 (stereo not drawn) [Compound 378]	–	–	11.80 (≈ 21.3 µM)	14.86 (≈ 26.8 µM)

SMILES	IC90 [1] [µg/mL]	IC90 [2] [µg/mL]	IC90 MSM 607 [1] [µg/mL]	IC90 STA B29213 [2] [µg/mL]
Cc1cc(F)ccc1C1CC(O)(C(c2ccccc2)c2cc3cc(Br)ccc3[nH]c2=O)CCN1 (stereo not drawn) [Compound 280]	–	–	1.10 (≈ 2.11 µM)	1.75 (≈ 3.36 µM)
Cc1cc(F)ccc1C1CC(O)(C(c2ccc(Cl)cc2)c2cc3cc(S(C)(=O)=O)ccc3[nH]c2=O)CCN1 (stereo not drawn) [Compound 225]	–	–	>14.77	>14.77
CC1CC(O)(C(c2ccc(Cl)cc2)c2cc3cc(Br)ccc3[nH]c2=O)CCN1 (stereo not drawn) [Compound 131]	–	–	4.98 (≈ 10.8 µM)	>6.27
CS(=O)(=O)c1ccc2[nH]c(=O)c(C(c3cccc(Cl)c3)C3(O)CCNC(Cc4ccc(F)cc4F)C3)cc2c1 (stereo not drawn) [Compound 327]	–	–	>15.31	>15.31
COc1nc2ccc(Br)cc2cc1C(c1ccc(Cl)cc1)C1(O)CCNC(C)C1 (stereo not drawn) [Compound 125]	–	–	3.00 (≈ 6.3 µM)	3.00 (≈ 6.3 µM)
Cc1cc(F)ccc1C1CC(O)(C(c2ccc(Cl)cc2)c2cc3cc(Br)ccc3[nH]c2=O)CCN1 (stereo not drawn) [Compound 106]	–	–	<0.93	1.87 (≈ 3.36 µM)
Cc1cc(F)ccc1C1CC(O)(C(c2ccccc2)c2cc3cc(Br)ccc3[nH]c2=O)CCN1 (stereo not drawn) [Compound 279]	–	–	7.00 (≈ 13.4 µM)	7.00 (≈ 13.4 µM)
Cc1cc(F)ccc1C1CC(O)(C(c2ccccc2)c2cc3cc(S(C)(=O)=O)ccc3[nH]c2=O)CCN1 (stereo not drawn) [Compound 238]	–	–	>13.99	>13.99
COc1nc2ccc(F)cc2cc1C(c1ccc(Cl)cc1)C1(O)CCNC(c2ccc(F)cc2C)C1 (stereo not drawn) [Compound 332]	–	–	2.20 (≈ 4.32 µM)	4.38 (≈ 8.61 µM)
CSc1ccc2[nH]c(=O)c(C(c3ccc(Cl)cc3)C3(O)CCNC(c4ccccc4)C3)cc2c1 (stereo not drawn) [Compound 234]	–	–	3.71 (≈ 7.56 µM)	5.24 (≈ 10.7 µM)
CS(=O)(=O)c1ccc2[nH]c(=O)c(C(c3ccc(Cl)cc3)C3(O)CCNC(Cc4ccccc4)C3)cc2c1 (stereo not drawn) [Compound 119]	–	–	>16.90	>16.90
Cc1cc(F)ccc1C1CC(O)(C(c2ccccc2)c2cc3cc(Br)ccc3[nH]c2=O)CCN1 (stereo not drawn) [Compound 43]	–	–	3.48 (≈ 6.67 µM)	3.48 (≈ 6.67 µM)
COc1nc2ccc(SC(C)C)cc2cc1C(c1ccc(Cl)cc1)C1(O)CCNC(Cc2ccccc2)C1 (stereo not drawn) [Compound 385]	–	–	1.37 (≈ 2.5 µM)	1.73 (≈ 3.16 µM)
Cc1cc(F)ccc1C1CC(O)(C(c2cccc(Cl)c2)c2cc3cc(Br)ccc3[nH]c2=O)CCN1 (stereo not drawn) [Compound 146]	–	–	1.87 (≈ 3.36 µM)	2.35 (≈ 4.23 µM)
COc1nc2ccc(Br)cc2cc1C(c1ccc(Cl)cc1)C1(O)CCNC(Cc2ccccn2)C1 (stereo not drawn) [Compound 381]	–	–	1.75 (≈ 3.17 µM)	3.49 (≈ 6.31 µM)
COc1nc2ccc(SC)cc2cc1C(c1ccc(Cl)cc1)C1(O)CCNC(CC2CCCCC2)C1 (stereo not drawn) [Compound 290]	–	–	2.63 (≈ 5.01 µM)	2.35 (≈ 4.47 µM)
O=c1[nH]c2ccc(Cl)cc2cc1C(c1ccc(Cl)cc1)C1(O)CCNCC1F (stereo not drawn) [Compound 458]	–	–	11.50 (≈ 27.3 µM)	11.50 (≈ 27.3 µM)
COc1nc2ccc(Cl)cc2cc1C(c1ccc(Cl)cc1)C1(O)CCNC(c2ccc3ccccc3c2)C1 (stereo not drawn) [Compound 430]	–	–	3.39 (≈ 6.24 µM)	3.39 (≈ 6.24 µM)
COc1nc2ccc(Cl)cc2cc1C(c1ccc(Cl)cc1)C1(O)CCN(C(C)c2ccccc2)C(c2cccnc2)C1 (stereo not drawn) [Compound 22]	> 15	> 15	–	–
COc1nc2ccc(F)cc2cc1C(c1ccc(Cl)cc1)C1(O)CCNC(Cc2ccccc2)C1 (stereo not drawn) [Compound 370]	–	–	1.55 (≈ 3.16 µM)	3.09 (≈ 6.29 µM)
COc1nc2ccc(Cl)cc2cc1C(c1ccc(Cl)cc1)C1(O)CCNC(c2ccc(F)cc2C)C1 (single isomer, unassigned) [Compound 4]	–	–	2.09 (≈ 3.98 µM)	2.63 (≈ 5.01 µM)
COc1nc2ccc(Br)cc2cc1C(c1ccc(Cl)cc1)C1(O)CCNC(Cc2ccccc2)C1 (stereo not drawn) [Compound 77]	–	–	4.36 (≈ 7.9 µM)	5.49 (≈ 9.95 µM)
CSc1ccc2[nH]c(=O)c(C(c3ccc(Cl)cc3)C3(O)CCNC(CC4CCCCC4)C3)cc2c1 (stereo not drawn) [Compound 295]	–	–	3.43 (≈ 6.71 µM)	3.43 (≈ 6.71 µM)
COc1nc2ccccc2cc1C(c1ccccc1)C1(O)CCNC(c2ccccc2)C1 (stereo not drawn) [Compound 415]	–	–	>15.47	15.47 (≈ 36.4 µM)
O=c1[nH]c2ccc(Br)cc2cc1C(c1ccc(Cl)cc1)C1(O)CCNCC1Cc1cccc(F)c1 (stereo not drawn) [Compound 336]	–	–	7.00 (≈ 12.6 µM)	3.51 (≈ 6.31 µM)
